Results: the CheMixHub viscosity set
± gives the uncertainty stated by the source.

Experiment: xn = mol fraction of the nth substance listed

c1ccc2c(c1)CCCC2 + CCCCCCCCCC
viscosity (293.15 K, 100 kPa, x1 = 0.0986): 0.954 ± 0.02 mPa·s | viscosity (293.15 K, 100 kPa, x1 = 0.2025): 1.008 ± 0.021 mPa·s | viscosity (293.15 K, 100 kPa, x1 = 0.2995): 1.065 ± 0.023 mPa·s | viscosity (293.15 K, 100 kPa, x1 = 0.3994): 1.133 ± 0.024 mPa·s | viscosity (293.15 K, 100 kPa, x1 = 0.5005): 1.221 ± 0.026 mPa·s | viscosity (293.15 K, 100 kPa, x1 = 0.5989): 1.329 ± 0.028 mPa·s | viscosity (293.15 K, 100 kPa, x1 = 0.6999): 1.468 ± 0.031 mPa·s | viscosity (293.15 K, 100 kPa, x1 = 0.7987): 1.644 ± 0.035 mPa·s | viscosity (293.15 K, 100 kPa, x1 = 0.9002): 1.878 ± 0.04 mPa·s | viscosity (293.15 K, 101 kPa, x2 = 0.1001): 1.873 ± 0.014 mPa·s | viscosity (293.15 K, 101 kPa, x2 = 0.2044): 1.629 ± 0.012 mPa·s | viscosity (293.15 K, 101 kPa, x2 = 0.2961): 1.471 ± 0.011 mPa·s | viscosity (293.15 K, 101 kPa, x2 = 0.3964): 1.345 ± 0.011 mPa·s | viscosity (293.15 K, 101 kPa, x2 = 0.4994): 1.226 ± 0.01 mPa·s | viscosity (293.15 K, 101 kPa, x2 = 0.6017): 1.143 ± 0.009 mPa·s | viscosity (293.15 K, 101 kPa, x2 = 0.6964): 1.071 ± 0.009 mPa·s | viscosity (293.15 K, 101 kPa, x2 = 0.7971): 1.015 ± 0.009 mPa·s | viscosity (293.15 K, 101 kPa, x2 = 0.8894): 0.968 ± 0.008 mPa·s | viscosity (298.15 K, 100 kPa, x1 = 0.0986): 0.886 ± 0.019 mPa·s | viscosity (298.15 K, 100 kPa, x1 = 0.2025): 0.936 ± 0.02 mPa·s | viscosity (298.15 K, 100 kPa, x1 = 0.2995): 0.987 ± 0.021 mPa·s | viscosity (298.15 K, 100 kPa, x1 = 0.3994): 1.043 ± 0.022 mPa·s | viscosity (298.15 K, 100 kPa, x1 = 0.5005): 1.127 ± 0.024 mPa·s | viscosity (298.15 K, 100 kPa, x1 = 0.5989): 1.224 ± 0.026 mPa·s | viscosity (298.15 K, 100 kPa, x1 = 0.6999): 1.347 ± 0.029 mPa·s | viscosity (298.15 K, 100 kPa, x1 = 0.7987): 1.495 ± 0.032 mPa·s | viscosity (298.15 K, 100 kPa, x1 = 0.9002): 1.708 ± 0.036 mPa·s | viscosity (298.15 K, 101 kPa, x2 = 0.1001): 1.703 ± 0.013 mPa·s | viscosity (298.15 K, 101 kPa, x2 = 0.2044): 1.486 ± 0.011 mPa·s | viscosity (298.15 K, 101 kPa, x2 = 0.2961): 1.349 ± 0.011 mPa·s | viscosity (298.15 K, 101 kPa, x2 = 0.3964): 1.238 ± 0.01 mPa·s | viscosity (298.15 K, 101 kPa, x2 = 0.4994): 1.134 ± 0.009 mPa·s | viscosity (298.15 K, 101 kPa, x2 = 0.6017): 1.06 ± 0.009 mPa·s | viscosity (298.15 K, 101 kPa, x2 = 0.6964): 0.993 ± 0.009 mPa·s | viscosity (298.15 K, 101 kPa, x2 = 0.7971): 0.942 ± 0.008 mPa·s | viscosity (298.15 K, 101 kPa, x2 = 0.8894): 0.9 ± 0.008 mPa·s | viscosity (303.15 K, 100 kPa, x1 = 0.0986): 0.827 ± 0.018 mPa·s | viscosity (303.15 K, 100 kPa, x1 = 0.2025): 0.871 ± 0.019 mPa·s | viscosity (303.15 K, 100 kPa, x1 = 0.2995): 0.919 ± 0.02 mPa·s | viscosity (303.15 K, 100 kPa, x1 = 0.3994): 0.973 ± 0.021 mPa·s | viscosity (303.15 K, 100 kPa, x1 = 0.5005): 1.045 ± 0.022 mPa·s | viscosity (303.15 K, 100 kPa, x1 = 0.5989): 1.132 ± 0.024 mPa·s | viscosity (303.15 K, 100 kPa, x1 = 0.6999): 1.243 ± 0.026 mPa·s | viscosity (303.15 K, 100 kPa, x1 = 0.7987): 1.382 ± 0.029 mPa·s | viscosity (303.15 K, 100 kPa, x1 = 0.9002): 1.564 ± 0.033 mPa·s | viscosity (303.15 K, 101 kPa, x2 = 0.1001): 1.56 ± 0.012 mPa·s | viscosity (303.15 K, 101 kPa, x2 = 0.2044): 1.368 ± 0.011 mPa·s | viscosity (303.15 K, 101 kPa, x2 = 0.2961): 1.245 ± 0.01 mPa·s | viscosity (303.15 K, 101 kPa, x2 = 0.3964): 1.148 ± 0.009 mPa·s | viscosity (303.15 K, 101 kPa, x2 = 0.4994): 1.053 ± 0.009 mPa·s | viscosity (303.15 K, 101 kPa, x2 = 0.6017): 0.986 ± 0.009 mPa·s | viscosity (303.15 K, 101 kPa, x2 = 0.6964): 0.925 ± 0.008 mPa·s | viscosity (303.15 K, 101 kPa, x2 = 0.7971): 0.878 ± 0.008 mPa·s | viscosity (303.15 K, 101 kPa, x2 = 0.8894): 0.838 ± 0.008 mPa·s | viscosity (308.15 K, 100 kPa, x1 = 0.0986): 0.774 ± 0.016 mPa·s | viscosity (308.15 K, 100 kPa, x1 = 0.2025): 0.814 ± 0.017 mPa·s | viscosity (308.15 K, 100 kPa, x1 = 0.2995): 0.859 ± 0.018 mPa·s | viscosity (308.15 K, 100 kPa, x1 = 0.3994): 0.908 ± 0.019 mPa·s | viscosity (308.15 K, 100 kPa, x1 = 0.5005): 0.973 ± 0.021 mPa·s | viscosity (308.15 K, 100 kPa, x1 = 0.5989): 1.047 ± 0.022 mPa·s | viscosity (308.15 K, 100 kPa, x1 = 0.6999): 1.151 ± 0.024 mPa·s | viscosity (308.15 K, 100 kPa, x1 = 0.7987): 1.276 ± 0.027 mPa·s | viscosity (308.15 K, 100 kPa, x1 = 0.9002): 1.437 ± 0.031 mPa·s | viscosity (313.15 K, 100 kPa, x1 = 0.0986): 0.727 ± 0.015 mPa·s | viscosity (313.15 K, 100 kPa, x1 = 0.2025): 0.763 ± 0.016 mPa·s | viscosity (313.15 K, 100 kPa, x1 = 0.2995): 0.805 ± 0.017 mPa·s | viscosity (313.15 K, 100 kPa, x1 = 0.3994): 0.85 ± 0.018 mPa·s | viscosity (313.15 K, 100 kPa, x1 = 0.5005): 0.909 ± 0.019 mPa·s | viscosity (313.15 K, 100 kPa, x1 = 0.5989): 0.977 ± 0.021 mPa·s | viscosity (313.15 K, 100 kPa, x1 = 0.6999): 1.07 ± 0.023 mPa·s | viscosity (313.15 K, 100 kPa, x1 = 0.7987): 1.182 ± 0.025 mPa·s | viscosity (313.15 K, 100 kPa, x1 = 0.9002): 1.326 ± 0.028 mPa·s | viscosity (313.15 K, 101 kPa, x2 = 0.1001): 1.328 ± 0.01 mPa·s | viscosity (313.15 K, 101 kPa, x2 = 0.2044): 1.175 ± 0.01 mPa·s | viscosity (313.15 K, 101 kPa, x2 = 0.2961): 1.073 ± 0.009 mPa·s | viscosity (313.15 K, 101 kPa, x2 = 0.3964): 0.995 ± 0.009 mPa·s | viscosity (313.15 K, 101 kPa, x2 = 0.4994): 0.917 ± 0.008 mPa·s | viscosity (313.15 K, 101 kPa, x2 = 0.6017): 0.862 ± 0.008 mPa·s | viscosity (313.15 K, 101 kPa, x2 = 0.6964): 0.809 ± 0.008 mPa·s | viscosity (313.15 K, 101 kPa, x2 = 0.7971): 0.77 ± 0.008 mPa·s | viscosity (313.15 K, 101 kPa, x2 = 0.8894): 0.737 ± 0.007 mPa·s | viscosity (318.15 K, 100 kPa, x1 = 0.0986): 0.685 ± 0.015 mPa·s | viscosity (318.15 K, 100 kPa, x1 = 0.2025): 0.718 ± 0.015 mPa·s | viscosity (318.15 K, 100 kPa, x1 = 0.2995): 0.757 ± 0.016 mPa·s | viscosity (318.15 K, 100 kPa, x1 = 0.3994): 0.798 ± 0.017 mPa·s | viscosity (318.15 K, 100 kPa, x1 = 0.5005): 0.852 ± 0.018 mPa·s | viscosity (318.15 K, 100 kPa, x1 = 0.5989): 0.916 ± 0.019 mPa·s | viscosity (318.15 K, 100 kPa, x1 = 0.6999): 0.999 ± 0.021 mPa·s | viscosity (318.15 K, 100 kPa, x1 = 0.7987): 1.101 ± 0.023 mPa·s | viscosity (318.15 K, 100 kPa, x1 = 0.9002): 1.23 ± 0.026 mPa·s | viscosity (323.15 K, 100 kPa, x1 = 0.0986): 0.647 ± 0.014 mPa·s | viscosity (323.15 K, 100 kPa, x1 = 0.2025): 0.678 ± 0.014 mPa·s | viscosity (323.15 K, 100 kPa, x1 = 0.2995): 0.713 ± 0.015 mPa·s | viscosity (323.15 K, 100 kPa, x1 = 0.3994): 0.752 ± 0.016 mPa·s | viscosity (323.15 K, 100 kPa, x1 = 0.5005): 0.802 ± 0.017 mPa·s | viscosity (323.15 K, 100 kPa, x1 = 0.5989): 0.859 ± 0.018 mPa·s | viscosity (323.15 K, 100 kPa, x1 = 0.6999): 0.936 ± 0.02 mPa·s | viscosity (323.15 K, 100 kPa, x1 = 0.7987): 1.028 ± 0.022 mPa·s | viscosity (323.15 K, 100 kPa, x1 = 0.9002): 1.147 ± 0.024 mPa·s
